Experiment: xn = mol fraction of the nth substance listed
Conditions: Liquid, Vibrating tube method

CC1(C)C(=O)[C@]2(C)CC[C@H]1C2 [(-)-fenchone] + CCO
mass density [kg/m3]
Conditions | 101 kPa | 20000 kPa | 25000 kPa | 30000 kPa | 35000 kPa | 40000 kPa
313.15 K, x1 = 0.0481 | 791.46 | – | – | – | – | –
313.15 K, x1 = 0.051 | – | 810.1 | 814 | 817.7 | 821.3 | 824.8
313.15 K, x1 = 0.0985 | 808.84 | – | – | – | – | –
313.15 K, x1 = 0.0992 | – | 826.1 | 829.9 | 833.6 | 837.1 | 840.5
313.15 K, x1 = 0.199 | – | 852.8 | 856.5 | 860 | 863.5 | 866.8
313.15 K, x1 = 0.2002 | 836.65 | – | – | – | – | –
313.15 K, x1 = 0.3002 | 857.52 | – | – | – | – | –
313.15 K, x1 = 0.301 | – | 873.6 | 877.2 | 880.6 | 883.9 | 887.1
313.15 K, x1 = 0.3968 | – | 889.1 | 892.6 | 895.9 | 899.2 | 902.4
313.15 K, x1 = 0.4031 | 874.42 | – | – | – | – | –
313.15 K, x1 = 0.4976 | – | 902.4 | 905.9 | 909.2 | 912.4 | 915.5
313.15 K, x1 = 0.5012 | 887.46 | – | – | – | – | –
313.15 K, x1 = 0.5924 | – | 912.6 | 916 | 919.2 | 922.5 | 925.5
313.15 K, x1 = 0.5976 | 898.09 | – | – | – | – | –
313.15 K, x1 = 0.6956 | – | 922 | 925.3 | 928.5 | 931.7 | 934.7
313.15 K, x1 = 0.697 | 907.3 | – | – | – | – | –
313.15 K, x1 = 0.7897 | 914.58 | – | – | – | – | –
313.15 K, x1 = 0.7942 | – | 929.7 | 933 | 936.1 | 939.3 | 942.3
313.15 K, x1 = 0.8929 | – | 936.3 | 939.6 | 942.7 | 945.8 | 948.8
313.15 K, x1 = 0.899 | 922.06 | – | – | – | – | –
313.15 K, x1 = 0.9454 | – | 939.4 | 942.7 | 945.8 | 948.9 | 951.9
313.15 K, x1 = 0.9486 | 925.06 | – | – | – | – | –
313.15 K, x1 = 1 | 928.04 | 942.3 | 945.6 | 948.7 | 951.8 | 954.7
328.15 K, x1 = 0.0481 | 777.95 | – | – | – | – | –
328.15 K, x1 = 0.051 | – | 798 | 802.1 | 806.1 | 810 | 813.7
328.15 K, x1 = 0.0985 | 795.29 | – | – | – | – | –
328.15 K, x1 = 0.0992 | – | 813.9 | 818 | 821.9 | 825.7 | 829.3
328.15 K, x1 = 0.199 | – | 840.6 | 844.6 | 848.3 | 852 | 855.5
328.15 K, x1 = 0.2002 | 823.07 | – | – | – | – | –
328.15 K, x1 = 0.3002 | 844.02 | – | – | – | – | –
328.15 K, x1 = 0.301 | – | 861.4 | 865.3 | 869 | 872.5 | 876
328.15 K, x1 = 0.3968 | – | 876.8 | 880.6 | 884.2 | 887.7 | 891.1
328.15 K, x1 = 0.4031 | 861.01 | – | – | – | – | –
328.15 K, x1 = 0.4976 | – | 890.1 | 893.7 | 897.3 | 900.8 | 904.2
328.15 K, x1 = 0.5012 | 874.13 | – | – | – | – | –
328.15 K, x1 = 0.5924 | – | 900.5 | 904.1 | 907.7 | 911.1 | 914.4
328.15 K, x1 = 0.5976 | 884.87 | – | – | – | – | –
328.15 K, x1 = 0.6956 | – | 910.1 | 913.7 | 917.2 | 920.6 | 923.8
328.15 K, x1 = 0.697 | 894.19 | – | – | – | – | –
328.15 K, x1 = 0.7897 | 901.6 | – | – | – | – | –
328.15 K, x1 = 0.7942 | – | 917.8 | 921.3 | 924.8 | 928.1 | 931.4
328.15 K, x1 = 0.8929 | – | 924.4 | 927.9 | 931.4 | 934.7 | 937.8
328.15 K, x1 = 0.899 | 909.23 | – | – | – | – | –
328.15 K, x1 = 0.9454 | – | 927.7 | 931.2 | 934.5 | 937.8 | 941
328.15 K, x1 = 0.9486 | 912.33 | – | – | – | – | –
328.15 K, x1 = 1 | 915.39 | 930.8 | 934.2 | 937.6 | 940.9 | 944

From the NIST ThermoML archive (doi:10.1016/j.jct.2013.09.024)
